Measured values taken from patent US20230183243A1, “HETEROARYL DERIVATIVES AND PHARMACEUTICAL COMPOSITION COMPRISING SAME AS ACTIVE INGREDIENT” (VORONOI INC., priority 2019, published 2023).

Key:
Test in all cases: ScanMAX Kinase panel (DiscoverX)
Type in all cases: binding
[1] = target: T1, ABL1(F317L)-nonphosphorylated (Homo sapiens, UniProt P00519, F317L); conditions: read-out: % Cont @ 1 μM
T1 construct: purchased DiscoverX Corp. (ScanMAX Kinase panel, commissioned)
Method: (§1) Specifically, the enzyme (kinase) selectivity of the compound of Example 7 selected from the Example compounds of the present invention was measured by commissioning DiscoverX Corp., and an experiment was performed using a panel for ScanMAX™ Kinase analysis.
(§2) In this case, the concentration of a drug treated with the enzyme was set at 1 μM in DMSO, and percent control (% control) was defined in the same manner as in the following Expression 1.
(§3) (Example compound−Positive control)/(Negative control−Positive control)×100 [Expression 1]
(§4) Wherein the positive control represents a compound having a percent control of 0%, and the negative control represents a compound having a percent control of 100% in DMSO. For the enzyme selectivity of the present invention, the compound was also judged to have activity against the corresponding enzyme when the percent control for each of the enzymes was <30% (i.e., less than 30%).
(§5) Further, to evaluate the inhibitory activity of the compound according to the present invention against more enzymes, an experiment was performed as follows. Specifically, the enzyme (kinase) selectivity of the compound of Example 64 selected from the Example compounds of the present invention was measured by commissioning DiscoverX Corp., and an experiment was performed using a panel for ScanMAX™ Kinase analysis. In this case, the concentration of a drug treated with the enzyme was set at 1 μM in DMSO, and the percent control (% control) were defined in the same manner as in the following Expression 1.
as §4, with “<35%” for “<30%”, “35%).” for “30%).”

[2] = target: T2, MAPKAPK2 (Homo sapiens, UniProt P49137); conditions: read-out: % Cont @ 1 μM
T2 construct: purchased DiscoverX Corp. (ScanMAX Kinase panel, commissioned)
Method: as §1, §2, §3, §4, §5
as §4, with “<35%” for “<30%”, “35%).” for “30%).”

[3] = target: T3, JNK3 (Homo sapiens, UniProt P53779)
T3 construct: purchased DiscoverX Corp. (ScanMAX Kinase panel, commissioned)
Method: as §1, §2, §3, §4, §5
as §4, with “<35%” for “<30%”, “35%).” for “30%).”

[4] = target: T4, JNK2 (Homo sapiens, UniProt P45984)
T4 construct: purchased DiscoverX Corp. (ScanMAX Kinase panel, commissioned)
Method: as §1, §2, §3, §4, §5
as §4, with “<35%” for “<30%”, “35%).” for “30%).”

[5] = target: T5, TTK (Homo sapiens, UniProt P33981); parameters: purchased DiscoverX Corp. (ScanMAX Kinase panel, commissioned); conditions: read-out: % Cont @ 1 μM
T5 sequence (P33981 1-857): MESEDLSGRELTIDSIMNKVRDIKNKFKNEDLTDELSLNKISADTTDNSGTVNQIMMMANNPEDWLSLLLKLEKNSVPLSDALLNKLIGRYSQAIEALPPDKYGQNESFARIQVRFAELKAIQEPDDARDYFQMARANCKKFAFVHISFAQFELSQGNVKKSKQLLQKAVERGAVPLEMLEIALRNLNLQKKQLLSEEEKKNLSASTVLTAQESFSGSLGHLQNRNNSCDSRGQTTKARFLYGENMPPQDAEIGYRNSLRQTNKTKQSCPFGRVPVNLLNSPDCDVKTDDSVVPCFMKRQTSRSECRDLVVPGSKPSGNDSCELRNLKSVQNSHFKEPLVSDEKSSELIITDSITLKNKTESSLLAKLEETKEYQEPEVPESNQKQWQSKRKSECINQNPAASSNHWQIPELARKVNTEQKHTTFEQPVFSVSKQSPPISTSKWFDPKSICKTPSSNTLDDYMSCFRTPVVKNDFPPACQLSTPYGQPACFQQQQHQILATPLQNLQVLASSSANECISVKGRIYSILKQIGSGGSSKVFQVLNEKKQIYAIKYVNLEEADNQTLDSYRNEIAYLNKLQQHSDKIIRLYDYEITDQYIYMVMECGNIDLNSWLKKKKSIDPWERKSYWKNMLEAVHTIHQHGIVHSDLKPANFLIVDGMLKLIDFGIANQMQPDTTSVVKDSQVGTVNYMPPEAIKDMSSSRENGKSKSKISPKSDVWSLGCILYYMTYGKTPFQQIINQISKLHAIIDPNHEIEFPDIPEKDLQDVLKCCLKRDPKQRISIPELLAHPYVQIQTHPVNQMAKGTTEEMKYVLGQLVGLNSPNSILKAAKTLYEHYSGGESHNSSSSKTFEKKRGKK
Method: as §1, §2, §3, §4, §5
as §4, with “<35%” for “<30%”, “35%).” for “30%).”

[6] = target: LRRK2 (Homo sapiens, UniProt Q5S007); parameters: purchased DiscoverX Corp. (ScanMAX Kinase panel, commissioned); conditions: read-out: % Cont @ 1 μM
Method: as §1, §2, §3, §4, §5
as §4, with “<35%” for “<30%”, “35%).” for “30%).”

[7] = target: T6, MEK3 (Homo sapiens, UniProt P46734); conditions: read-out: % Cont @ 1 μM
T6 construct: purchased DiscoverX Corp. (ScanMAX Kinase panel, commissioned)
Method: as §1, §2, §3, §4

[8] = target: T7, FLT3(D835V) (Homo sapiens, UniProt P36888, D835V); conditions: read-out: % Cont @ 1 μM
T7 construct: purchased DiscoverX Corp. (ScanMAX Kinase panel, commissioned)
Method: as §1, §2, §3, §4

[9] = target: T8, RIOK1 (Homo sapiens, UniProt Q9BRS2); conditions: read-out: % Cont @ 1 μM
T8 construct: purchased DiscoverX Corp. ScanMAX Kinase panel
Method: as §5, §3
as §4, with “<35%” for “<30%”, “35%).” for “30%).”

[10] = target: T9, YSK4 (Homo sapiens, UniProt Q56UN5); conditions: read-out: % Cont @ 1 μM
T9 construct: purchased DiscoverX Corp. (ScanMAX Kinase panel, commissioned)
Method: as §5, §3
as §4, with “<35%” for “<30%”, “35%).” for “30%).”

[11] = target: T10, TRKB (Homo sapiens, UniProt Q16620); conditions: read-out: % Cont @ 1 μM
T10 construct: purchased DiscoverX Corp. ScanMAX Kinase panel
Method: as §5, §3
as §4, with “<35%” for “<30%”, “35%).” for “30%).”

[12] = target: T11, SNARK (Homo sapiens, UniProt Q9H093)
T11 construct: purchased DiscoverX Corp. (ScanMAX Kinase panel, commissioned)
Method: as §5, §3
as §4, with “<35%” for “<30%”, “35%).” for “30%).”

[13] = target: T12, CAMK2D (Homo sapiens, UniProt Q13557); conditions: read-out: % Cont @ 1 μM
T12 construct: purchased DiscoverX Corp. ScanMAX Kinase panel
Method: as §5, §3
as §4, with “<35%” for “<30%”, “35%).” for “30%).”

[14] = system: FLT3(ITD)
Method: as §5, §3
as §4, with “<35%” for “<30%”, “35%).” for “30%).”

[15] = target: T13, MAP3K2 (Homo sapiens, UniProt Q9Y2U5); conditions: read-out: % Cont @ 1 μM
T13 construct: purchased DiscoverX Corp. ScanMAX Kinase panel
Method: as §5, §3
as §4, with “<35%” for “<30%”, “35%).” for “30%).”

[16] = target: T14, PKN2 (Homo sapiens, UniProt Q16513); conditions: read-out: % Cont @ 1 μM
T14 construct: purchased DiscoverX Corp. ScanMAX Kinase panel
Method: as §5, §3
as §4, with “<35%” for “<30%”, “35%).” for “30%).”

[17] = system: FLT3(ITD, D835V)
Method: as §5, §3
as §4, with “<35%” for “<30%”, “35%).” for “30%).”

[18] = target: T15, ULK1 (Homo sapiens, UniProt O75385)
T15 construct: purchased DiscoverX Corp. ScanMAX Kinase panel
Method: as §5, §3
as §4, with “<35%” for “<30%”, “35%).” for “30%).”

[19] = target: T16, ULK3 (Homo sapiens, UniProt Q6PHR2)
T16 construct: purchased DiscoverX Corp. ScanMAX Kinase panel
Method: as §5, §3
as §4, with “<35%” for “<30%”, “35%).” for “30%).”

[20] = target: T17, CSNK1E (Homo sapiens, UniProt P49674); conditions: read-out: % Cont @ 1 μM
T17 construct: purchased DiscoverX Corp. ScanMAX Kinase panel
Method: as §5, §3
as §4, with “<35%” for “<30%”, “35%).” for “30%).”

Sequence of LRRK2 (Q5S007 whole entry): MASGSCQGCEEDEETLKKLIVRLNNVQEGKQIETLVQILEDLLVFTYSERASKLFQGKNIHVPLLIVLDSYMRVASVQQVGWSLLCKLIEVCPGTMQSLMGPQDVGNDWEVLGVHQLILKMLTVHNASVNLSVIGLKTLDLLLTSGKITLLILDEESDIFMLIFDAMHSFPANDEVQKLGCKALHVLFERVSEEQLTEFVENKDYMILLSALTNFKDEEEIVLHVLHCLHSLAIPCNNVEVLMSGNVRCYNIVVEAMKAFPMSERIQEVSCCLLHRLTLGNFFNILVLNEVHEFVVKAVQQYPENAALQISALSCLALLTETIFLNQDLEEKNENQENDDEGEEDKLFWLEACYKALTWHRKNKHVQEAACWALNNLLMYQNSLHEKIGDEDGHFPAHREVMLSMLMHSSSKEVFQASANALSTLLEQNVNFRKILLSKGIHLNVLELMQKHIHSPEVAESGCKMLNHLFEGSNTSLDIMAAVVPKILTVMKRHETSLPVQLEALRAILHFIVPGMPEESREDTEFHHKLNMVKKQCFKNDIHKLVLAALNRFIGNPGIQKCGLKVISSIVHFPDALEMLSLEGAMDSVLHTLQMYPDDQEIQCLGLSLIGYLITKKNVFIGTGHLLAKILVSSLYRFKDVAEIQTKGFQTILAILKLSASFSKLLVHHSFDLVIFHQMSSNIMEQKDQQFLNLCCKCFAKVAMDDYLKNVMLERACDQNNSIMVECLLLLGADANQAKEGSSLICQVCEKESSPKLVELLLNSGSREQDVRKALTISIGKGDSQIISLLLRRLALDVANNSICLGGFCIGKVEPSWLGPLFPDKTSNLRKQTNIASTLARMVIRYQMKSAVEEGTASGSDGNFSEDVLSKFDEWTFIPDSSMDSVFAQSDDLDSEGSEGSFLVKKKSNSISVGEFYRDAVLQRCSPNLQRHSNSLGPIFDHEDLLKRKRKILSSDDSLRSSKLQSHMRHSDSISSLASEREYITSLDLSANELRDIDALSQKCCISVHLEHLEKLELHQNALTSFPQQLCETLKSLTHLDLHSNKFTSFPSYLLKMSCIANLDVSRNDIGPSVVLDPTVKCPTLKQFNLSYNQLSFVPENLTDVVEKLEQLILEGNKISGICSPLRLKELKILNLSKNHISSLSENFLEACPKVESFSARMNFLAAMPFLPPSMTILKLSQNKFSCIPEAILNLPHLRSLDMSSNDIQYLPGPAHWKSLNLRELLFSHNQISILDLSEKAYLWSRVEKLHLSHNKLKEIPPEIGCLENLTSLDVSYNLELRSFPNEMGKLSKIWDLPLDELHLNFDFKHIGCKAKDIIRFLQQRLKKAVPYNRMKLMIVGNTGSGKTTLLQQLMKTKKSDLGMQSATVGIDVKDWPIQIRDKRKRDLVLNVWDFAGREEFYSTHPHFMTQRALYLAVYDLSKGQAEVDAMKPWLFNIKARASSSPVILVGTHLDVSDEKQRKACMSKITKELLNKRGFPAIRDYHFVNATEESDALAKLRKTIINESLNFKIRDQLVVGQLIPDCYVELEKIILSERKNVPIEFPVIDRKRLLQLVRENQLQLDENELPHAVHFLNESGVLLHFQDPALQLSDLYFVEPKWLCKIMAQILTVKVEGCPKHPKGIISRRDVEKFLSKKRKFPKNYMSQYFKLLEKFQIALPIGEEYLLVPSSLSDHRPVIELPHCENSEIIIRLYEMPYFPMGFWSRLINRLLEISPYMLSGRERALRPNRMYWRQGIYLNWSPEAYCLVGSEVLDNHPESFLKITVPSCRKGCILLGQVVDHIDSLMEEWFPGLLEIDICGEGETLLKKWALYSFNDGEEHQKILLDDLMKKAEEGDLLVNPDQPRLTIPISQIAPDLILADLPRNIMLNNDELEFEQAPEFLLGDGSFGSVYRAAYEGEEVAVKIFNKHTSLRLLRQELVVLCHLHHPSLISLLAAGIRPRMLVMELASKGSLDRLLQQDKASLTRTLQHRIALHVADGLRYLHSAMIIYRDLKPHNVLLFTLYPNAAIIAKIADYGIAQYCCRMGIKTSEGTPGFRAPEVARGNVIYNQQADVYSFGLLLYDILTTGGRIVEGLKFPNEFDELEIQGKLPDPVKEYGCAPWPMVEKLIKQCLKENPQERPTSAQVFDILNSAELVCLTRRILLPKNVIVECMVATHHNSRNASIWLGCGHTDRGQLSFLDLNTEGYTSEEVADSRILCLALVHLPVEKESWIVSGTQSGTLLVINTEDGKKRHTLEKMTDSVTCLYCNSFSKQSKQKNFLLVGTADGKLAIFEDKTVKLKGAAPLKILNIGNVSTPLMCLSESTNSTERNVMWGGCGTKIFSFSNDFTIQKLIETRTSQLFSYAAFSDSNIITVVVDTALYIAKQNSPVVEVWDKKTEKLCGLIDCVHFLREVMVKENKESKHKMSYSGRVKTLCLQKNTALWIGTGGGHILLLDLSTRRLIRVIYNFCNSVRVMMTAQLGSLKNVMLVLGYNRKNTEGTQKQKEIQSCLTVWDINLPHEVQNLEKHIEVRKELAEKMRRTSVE
T2 sequence (P49137 whole entry): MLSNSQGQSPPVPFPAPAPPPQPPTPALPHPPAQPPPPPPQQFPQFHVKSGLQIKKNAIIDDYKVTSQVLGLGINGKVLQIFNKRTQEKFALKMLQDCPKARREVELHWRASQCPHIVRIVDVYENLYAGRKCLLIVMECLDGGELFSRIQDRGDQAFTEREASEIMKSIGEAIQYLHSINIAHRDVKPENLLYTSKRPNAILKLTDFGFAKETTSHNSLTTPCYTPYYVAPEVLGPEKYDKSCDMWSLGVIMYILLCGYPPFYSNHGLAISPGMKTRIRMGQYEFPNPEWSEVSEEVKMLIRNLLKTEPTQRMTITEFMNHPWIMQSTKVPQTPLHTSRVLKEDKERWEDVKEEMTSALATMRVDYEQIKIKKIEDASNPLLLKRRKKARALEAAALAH
T1 sequence (P00519 whole entry F317L): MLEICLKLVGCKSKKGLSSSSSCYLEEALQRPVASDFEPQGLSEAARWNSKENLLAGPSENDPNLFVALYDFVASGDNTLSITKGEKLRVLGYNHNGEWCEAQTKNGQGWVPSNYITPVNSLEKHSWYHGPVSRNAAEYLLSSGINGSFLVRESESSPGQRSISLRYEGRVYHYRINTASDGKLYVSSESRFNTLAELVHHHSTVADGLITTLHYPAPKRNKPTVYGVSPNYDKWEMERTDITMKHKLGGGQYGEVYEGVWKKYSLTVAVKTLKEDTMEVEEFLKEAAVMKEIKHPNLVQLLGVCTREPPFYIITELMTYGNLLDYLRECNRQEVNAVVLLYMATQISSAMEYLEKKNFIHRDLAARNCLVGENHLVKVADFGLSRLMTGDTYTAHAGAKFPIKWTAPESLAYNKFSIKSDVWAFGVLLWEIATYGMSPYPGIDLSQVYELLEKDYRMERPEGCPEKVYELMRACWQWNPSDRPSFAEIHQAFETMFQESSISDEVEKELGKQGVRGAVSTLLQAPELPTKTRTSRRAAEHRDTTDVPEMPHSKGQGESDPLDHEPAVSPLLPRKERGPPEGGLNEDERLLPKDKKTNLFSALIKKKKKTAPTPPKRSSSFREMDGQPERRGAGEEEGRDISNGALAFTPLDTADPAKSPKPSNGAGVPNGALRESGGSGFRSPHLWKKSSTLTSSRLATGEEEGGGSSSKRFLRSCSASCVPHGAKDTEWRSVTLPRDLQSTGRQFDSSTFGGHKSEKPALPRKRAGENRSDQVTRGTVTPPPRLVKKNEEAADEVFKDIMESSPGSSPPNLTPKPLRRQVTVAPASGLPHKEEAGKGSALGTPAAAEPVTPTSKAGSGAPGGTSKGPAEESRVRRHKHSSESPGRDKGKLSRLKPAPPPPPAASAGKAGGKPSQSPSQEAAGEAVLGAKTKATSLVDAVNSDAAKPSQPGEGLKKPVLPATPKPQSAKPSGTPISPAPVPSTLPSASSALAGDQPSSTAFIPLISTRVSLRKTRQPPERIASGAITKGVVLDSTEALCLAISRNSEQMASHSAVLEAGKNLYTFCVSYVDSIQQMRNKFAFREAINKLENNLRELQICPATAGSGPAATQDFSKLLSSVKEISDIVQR
T4 sequence (P45984 whole entry): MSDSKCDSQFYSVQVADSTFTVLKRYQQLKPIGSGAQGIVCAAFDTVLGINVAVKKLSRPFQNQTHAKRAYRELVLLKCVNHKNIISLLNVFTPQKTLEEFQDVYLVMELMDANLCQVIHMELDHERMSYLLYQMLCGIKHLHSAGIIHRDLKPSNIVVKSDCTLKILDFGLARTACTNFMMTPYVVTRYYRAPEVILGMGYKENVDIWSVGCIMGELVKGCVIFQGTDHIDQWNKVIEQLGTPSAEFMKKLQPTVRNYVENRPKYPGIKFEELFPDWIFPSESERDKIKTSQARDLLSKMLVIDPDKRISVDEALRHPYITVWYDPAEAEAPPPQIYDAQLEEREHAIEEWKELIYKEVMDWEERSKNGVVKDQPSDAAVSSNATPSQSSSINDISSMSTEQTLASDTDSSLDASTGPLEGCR
T3 sequence (P53779 whole entry): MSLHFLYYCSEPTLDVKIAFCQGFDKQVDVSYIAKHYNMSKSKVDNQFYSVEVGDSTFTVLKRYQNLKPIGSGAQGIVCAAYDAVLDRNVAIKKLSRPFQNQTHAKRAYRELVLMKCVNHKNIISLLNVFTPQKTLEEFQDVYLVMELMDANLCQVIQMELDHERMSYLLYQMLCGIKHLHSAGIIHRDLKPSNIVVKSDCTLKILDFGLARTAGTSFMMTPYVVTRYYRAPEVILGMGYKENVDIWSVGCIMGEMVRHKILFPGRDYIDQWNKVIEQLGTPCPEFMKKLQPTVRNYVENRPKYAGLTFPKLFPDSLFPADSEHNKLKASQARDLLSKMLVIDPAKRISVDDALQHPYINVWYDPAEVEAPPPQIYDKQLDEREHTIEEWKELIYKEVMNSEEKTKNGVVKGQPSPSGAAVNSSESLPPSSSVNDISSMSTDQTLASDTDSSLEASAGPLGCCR

Row | Compound | remaining binding at 1 µM [1] [%] | remaining binding at 1 µM [2] [%] | % Cont @ 1 μM [3] [%] | % Cont @ 1 μM [4] [%] | percent of control at 1 µM [5] [%] | percent of control binding at 1 µM [6] [%] | remaining binding at 1 µM [7] [%] | remaining binding at 1 µM [8] [%] | remaining binding at 1 µM [9] [%] | percent of control binding at 1 µM [10] [%] | remaining binding at 1 µM [11] [%] | % Cont @ 1 μM [12] [%] | percent of control at 1 µM [13] [%] | % Cont @ 1 μM [14] [%] | remaining binding at 1 µM [15] [%] | remaining binding at 1 µM [16] [%] | % Cont @ 1 μM [17] [%] | % Cont @ 1 μM [18] [%] | % Cont @ 1 μM [19] [%] | remaining binding at 1 µM [20] [%]
1 | COc1cc(-c2ccnn2C)ccc1Nc1nc(NC2CCCCC2)c2c(C#N)c[nH]c2n1 [Example 7, 4-(cyclohexylamino)-2-((2-methoxy-4-(1-methyl-1H-pyrazol-5-yl)phenyl)amino)-7H-pyrrolo[2,3-d] pyrimidine-5-carbonitrile] | 28 | 28 | 4.3 | 13 | 0.25 | 4.8 | 18 | 5.6 |  |  |  |  |  |  |  |  |  |  |  | 
2 | COc1cc(N2CCCC2=O)ccc1Nc1cc(NC2CCCCC2)c2c(C#N)c[nH]c2n1 [Example 64, 4-(cyclohexylamino)-6-((2-methoxy-4-(2-oxopyrrolidin-1-yl)phenyl)amino)-1H-pyrrolo[2,3-b] pyridine-3-carbonitrile] | 26 | 28 | 1.7 | 4.1 | 0.25 | 14 |  |  | 27 | 0.3 | 3.9 | 0 | 12 | 17 | 13 | 28 | 1.2 | 3.1 | 2.6 | 24
